# Laboratory results: a melting point compilation (Tetko et al.; mined from patent text by program, amines drawn as free bases though some values may be those of a salt)
row,SMILES,melting point [°C]
1,CCCCCN1C(=O)C2(COc3cc4c(cc32)CCO4)c2ccccc21 (configuration not stated),128 to 129
2,O=C(O)CCc1cn(Cc2ccc(C(=O)NCc3ccc(C(F)(F)F)cc3)cc2)nc1-c1ccccc1,151 to 152
3,CC(=O)C=Cn1sc(Cl)cc1=O,137 to 139
4,CC(C)(CC(N)=O)c1ccc2c(c1)OCO2,70 to 71.5
5,O=C1OC2(CCc3ccccc32)c2ccccc21 (configuration not stated),138 to 139
6,COc1ccc2[nH]cc(CCN3CCC(c4ccc(C)cc4)CC3)c2c1,131 to 133
7,Nc1ccccc1C(=O)CCC(=O)O,103 to 107
8,c1cc(-c2ccsc2)ccn1,138
9,COC=C(C(=O)OC)c1ccccc1CCc1ccccc1,52 to 54
10,N#Cc1nc(N2CCNCC2)nc(N2CCS(=O)CC2)c1Cl,206 to 208
11,CN(C)C=Nc1sc(C=O)c(S(=O)(=O)c2ccccc2)c1C#N,262
12,O=Cc1cnn(-c2cccc(C(F)(F)F)c2)c1,80 to 82
13,CCCCCCCCN1C(=O)C2C3CCC(O3)C2C1=O (configuration not stated),36 to 37
14,Cc1cc2c(c3c1NC(=O)CC3)OC(CN(C)C(=O)CCCO)C2 (configuration not stated),141 to 143
15,CCOC(=O)C(=CNc1nnc(C)s1)C(=O)c1cc(F)c(Cl)nc1Cl,142 to 152
16,CSc1ncncc1C(O)c1ccccc1F (configuration not stated),176 to 177
17,CCOC=CC(=O)Nc1ccc(-n2cnc(C)c2)cc1,214 to 216
18,Nc1nc(-c2ccc(F)cc2)cn1N,227 to 230
19,O=c1oc(C(F)(F)F)nc(-c2ccccc2)c1-c1ccccc1,118
20,CN(c1cccc2cc(C3=NCC(CN4CCS(=O)CC4)S3)[nH]c12)S(=O)(=O)c1ccccn1 (configuration not stated),193 to 194
21,CC(C)c1cc(C(C)C)c(CC(=O)NS(=O)(=O)Oc2c(C(C)C)cc(C=O)cc2C(C)C)c(C(C)C)c1,71 to 76

row,SMILES,melting point [°C]
1,OC(Cn1cncn1)(c1ccc(F)cc1F)C(F)(F)SC1CC1 (configuration not stated),99 to 102
2,Cc1nc(CO)c2n1-c1ccc(Cl)cc1C(c1ccccc1F)=NC2,233 to 235
3,CCOC(=O)C(C#N)=CNNCC(=Cc1ccccc1)c1ccccc1,129 to 133
4,O=C(O)C(=NOc1ccccc1)c1ccccc1,105
5,NS(=O)(=O)c1ccccc1OCCCl,110
6,c1cc(-c2cnco2)nc(-c2cnco2)c1,190 to 191
7,CCC[C@H](NC(=O)/C=C/S(=O)(=O)c1ccccc1)C(=S)OC,131 to 132
8,CCCC1=C(c2cccc([N+](=O)[O-])c2)C(=NO)CC1,128 to 129
9,Cc1cc(-n2cnnc2)ccc1[N+](=O)[O-],208 to 210
10,O=C1NCC(Cc2ccc3c(c2)OCO3)O1 (configuration not stated),98.5 to 100
11,Cc1cc(C2=NN(C(N)=S)[C@H](C)Cc3cc4c(cc32)OCO4)cc(C)c1[N+](=O)[O-],228 to 230
12,CCCCC(CCCC)n1c(=O)sc2c(=O)[nH]c(N)nc21,> 175
13,Cc1ccccc1P(=NC(=O)OCc1cccnc1)(c1ccccc1)c1ccccc1,142 to 143
14,Cc1cc(C)c(C(=O)P2(=O)Oc3ccccc3-c3ccccc32)c(C)c1 (configuration not stated),109
15,CCCCC1=N/C(=C\c2c[nH]c3ncccc23)C(=O)N1C,220 to 222
16,O=C(NCCO)/C(=C/c1ccc(OCC(F)F)cc1)NC(=O)c1ccc(OCCCC2CC2)cc1,149 to 151
17,CC12CCCc3c1n(c1ccccc31)C(=O)CC2 (configuration not stated),93 to 95
18,Cc1cccc(C(=O)Nc2c[nH]nc2C(=O)NCCCOC(C)C)n1,169 to 170
19,CCCCc1c(O)c2nccnc2n(-c2ccccc2)c1=O,183 to 185
20,Cc1cccc(NCC2=NCCN2C(=O)Nc2ccccc2)c1C,137
21,OCc1cccc2cc(-c3ccccc3)oc12,118

row,SMILES,melting point [°C]
1,O=C(O)COc1ccc2c(c1)-c1nc(S(=O)(=O)CC(c3ccccc3)c3ccccc3)sc1CC2,183 to 185
2,O=C(NCCO)c1ccc(C(=O)N2CCN(CCO)CC2)nc1,126 to 128
3,CC=CC(=O)C1=C(C)C(=O)CCC1(C)C,68 to 69
4,CC(C)(C)c1cc(-c2csc(SCC(=O)O)n2)cc(C(C)(C)C)c1O,158 to 159
5,CC1CC(=O)NN=C1c1ccc(C2=NNC(=O)CC2C)cc1 (configuration not stated),> 300
6,Cc1ccccc1-c1c(-c2ccc(S(C)(=O)=O)cc2)oc2ccccc2c1=O,190 to 191
7,CCCCc1nc2cccc(C(=O)O)c2n1Cc1ccn2c(C(=O)O)c(-c3ccccc3)nc2c1,202 to 204
8,CCOC(C)Oc1cnc(C(C)C)nc1O (configuration not stated),70
9,COC(=O)NC1=NCC(c2ccccc2)CN1C (configuration not stated),176 to 177
10,Fc1ccc(OC2CCN(CCc3c[nH]c4ccccc34)CC2)cc1,109 to 111
11,CCCCCCC(Cc1ccc(OCCN2CCCCCC2)cc1)(C(=O)NO)S(=O)(=O)c1ccc(OC)cc1 (configuration not stated),65
12,CC(Sc1nc(N)cc(C(F)(F)F)n1)c1cc2ccoc2cn1 (configuration not stated),180 to 182
13,CNc1cc(C)cc([N+](=O)[O-])c1N,113
14,O=C(O)CC(Sc1ccc(Cl)cc1)c1ccccc1 (configuration not stated),90 to 92
15,C=C(C)C(=O)Nc1ccc(NC(=O)C(F)(F)C(F)(F)C(F)(F)F)c(O)c1,247 to 250
16,O=C1CC(Sc2ccccc2)C(O)(c2ccccc2)C(Sc2ccccc2)C1 (configuration not stated),126 to 127
17,CC(C)P1(=O)NCc2ccccc21 (configuration not stated),149 to 151
18,O=C(CS(=O)Cc1ccco1)NCCCOc1cccc(C2OCCO2)c1 (configuration not stated),95.3 to 96.1
19,CC(C)(C)OC(=O)N[C@@H]1C(=O)N2C(C(=O)OC(C)(C)C)=C(C=O)CC[C@H]12,194 to 195

# Other lines, results leading:
row,melting point [°C],SMILES
1,132 to 134,C[C@H](Oc1cc(-c2c3ccccc3c(Br)c3sc4ccccc4c23)ccc1Br)C(=O)O
2,132 to 133,CC(C)NCC(O)(Cn1cncn1)c1ccc(Cl)cc1Cl (configuration not stated)
3,305 to 308,Cc1cc(-c2c(F)cc3c(=O)c(C(=O)O)cn4c3c2OC[C@@H]4C)cc(C)n1
4,112 to 114,COC(=O)C1=C(C)NC(c2c(F)cc(F)cc2F)=NC1c1ccc(F)cc1Cl (configuration not stated)
5,78 to 79,COC(=O)c1c(C)sc2cc(CCl)ccc12
6,169,Oc1cccc(-c2ccc(OC[C@H](O)CCc3cccnc3)cc2)c1
7,179 to 181,COc1ccc(C(=O)NNC(C)=N)cc1
8,146,Cc1ccc2c(c1)c(N1CCN(C(=O)c3ccco3)CC1)c(C#N)c(=O)n2Cc1ccccc1
9,271 to 273,COc1cc2cc3ncc(C#N)c(Nc4ccc(Cl)cc4Cl)c3cc2cc1OC
10,182 to 185,COc1ccc(C(CC(=O)O)N2C(=O)c3cc(Cl)c(Cl)cc3C2=O)cc1 (configuration not stated)
11,208 to 210,CCC(C)(CC)c1nnc(NC(=O)c2c(OC)cccc2OC)s1
12,167 to 169,CC(C)=NNC(=O)c1ccc(-c2ccc(Cl)cc2)o1
13,225 to 227,CCCc1ccc(-c2c3ccccc3c(-c3ccc(CCC)cc3)c3cc(Cl)ccc23)cc1
14,156 to 157,COC1=C(OC)C(=O)c2c(cccc2[N+](=O)[O-])C1=O
15,315,CC(C)Oc1nccc2c1C(c1ccccc1C(F)(F)F)c1c(cc[nH]c1=O)N2 (configuration not stated)
16,195 to 196,Cc1cccnc1C(=O)c1[nH]c2cc(Cl)ccc2c1CC(=O)O
17,146,CCOC(=O)C(C(=O)C(C)C)C1c2ccccc2C(=O)N1c1ccc2ccc(Cl)nc2n1 (configuration not stated)
18,69 to 71,COc1ccc2cc([C@H](C)C(=O)OC/C=C\CO)ccc2c1
19,211 to 213,COc1ccc(CCNc2nc(N)n3nc(-c4ccco4)nc3n2)cc1
20,282 to 284,CC(=O)Nc1ccc(S(=O)(=O)N2CCN(c3c(F)cc4c(=O)c(C(=O)O)cn(C5CC5)c4c3F)CC2)cc1
21,192 to 193,CS(=O)(=O)c1ccc(C(Cc2ccc(F)cc2)C(=O)Nc2cncc(Cl)n2)cc1 (configuration not stated)

row,melting point [°C],SMILES
1,248 to 249,CC(C)(C)OC(=O)N1CCC(CCNC2(c3ccccc3Cl)C(=O)Nc3cc(Cl)c(Cl)cc32)CC1 (configuration not stated)
2,253 to 255,COc1cc(OC)c(-c2cccnc2)cc1/C=C/C(=O)c1ccc(S(N)(=O)=O)cc1
3,203,CC(=O)Oc1ccc(-c2cc3ccccc3[nH]2)cc1
4,152 to 153,O=c1c(Cl)c(OCc2ccc(F)cc2F)ccn1Cc1ccc2[nH]ccc2c1
5,154 to 155,CCc1nc(/C=C/c2cn(-c3ccccc3)nc2OCc2ccc(OCc3nc(-c4cccc(CC(=O)O)c4)oc3C)c(OC)c2)cs1
6,196 to 198,COc1cccc2c(CCCNC3COc4c(F)ccc(C(N)=O)c4C3)c[nH]c12 (configuration not stated)
7,63.6,CCCc1ccc(-c2ccc(CCc3ccc(Cl)c(F)c3)cc2)cc1
8,195 to 196,CCc1cc2cc(O)ccc2c(Oc2ccc(/C=C/C(=O)N3CCN(C)CC3)cc2)c1-c1ccccc1
9,204 to 207,CN(C)C(=O)Cn1c(-c2ccc([N+](=O)[O-])cc2)nc2cccnc21
10,202,CCOc1cc2c(cc1S(=O)(=O)NC(=S)NC)C(CNC(=O)c1cc(Cl)ccc1OC)CCO2 (configuration not stated)
11,141 to 142,Fc1cccc(F)c1-c1nccc(-c2ccc(-c3ccc(C(F)(F)F)cc3)cc2)n1
12,144 to 145,Oc1cccc(-c2noc3cc(F)ccc23)c1
13,150 to 152,CSC(Nc1cc(C(F)(F)F)cc(C(F)(F)F)c1)=C(C#N)S(=O)(=O)c1ccc(Cl)cc1
14,150 to 151,COc1ccc(C(=O)Cc2c(Cl)cncc2Cl)c2c1OCCCO2
15,67 to 68,Cc1nc(N)nc(N)c1CCC(C)c1cccc(-c2ccc(C(F)(F)F)cc2)c1 (configuration not stated)
16,144 to 145,O=[N+]([O-])c1ccc(OCC(O)COc2ccc([N+](=O)[O-])cc2)cc1
17,106 to 107,CCOC(=O)c1cc(NCc2c(C)cccc2CC)c2nc(COC)n(C)c2c1
18,75 to 76,CCOC(=O)Oc1cccc(OC)c1Cl
19,202 to 204,COc1cccc2c1C[C@H]1C[C@@H](CN3CCC(O)(c4ccc(Cl)cc4)CC3)CN(C)[C@@H]1C2
20,215 to 216,O=C(COc1ccc2ccccc2c1)Nc1ccc(C(=O)C(=O)O)cc1
